How the values were obtained:
[1] = tested on: HL60; assay: In vitro cytotoxic activity, 7-AAD flow cytometry, HL60; type: cell-based; conditions: Homo sapiens, HL-60, 24 h incubation, mean ± SD, triplicate
Description: (§1) The investigation focused on the assessment of the synthesized compounds’ toxicities, utilizing a panel of six diverse cell lines. The selection of cells was based on the specific features of their metabolism, namely, Jurkat, K562, U937, and HL60 cells are suspension cultures of oncohematologic origin, and HEK293 is a conditionally normal line transformed by adenovirus and often used as control cells along with fibroblasts. The normal fibroblast line (Wi-38) utilized in the experiment was diploid and was obtained from the lung tissue of an aborted fetus. The total cytotoxic activity of 16 compounds was studied using flow cytometry.
(§2) Human cancer cell lines, including Jurkat, K562, U937, HL60, and fibroblasts (Wi-38), were obtained from the European Authentic Cell Culture Collection and further cultured according to established standard protocols using sterile methods. The cells were cultivated in RPMI 1640 (for Jurkat and K562) and DMEM (for Wi-38 and HEK293) media (Gibco, Billings, MT, USA), with the addition of […] glutamine, 10% FBS (Sigma, Kanagawa, Japan), and 100 U/mL penicillin–streptomycin (Sigma). All cell types were cultivated in a humidified atmosphere containing 5% CO₂ at a temperature of 37 °C. Subculturing was performed at two- to three-day intervals. The cells were subsequently seeded into 24-well plates at a density of 5 × 10^4 cells per well and incubated overnight. Subsequent subculturing was then performed at two-day intervals, with a seeding density of 1 × 10^5 cells per 24-well plate, using RPMI medium with 10% FBS [49].
(§3) The dissolution of the compounds tested was initially performed in dimethyl sulfoxide (DMSO) with an initial solution of 100 mM in 10% DMSO. Subsequently, the solution was diluted in a complete culture medium, namely, Dulbecco’s medium, modified Eagle’s medium (DMEM), or Roswell Park Memorial Institute medium (RPMI). Substances were added at concentrations of 10, 1, 100, 10, 1, and 0.1 μM on the day after seeding and incubated for 24 h. Following this, the cells were washed with a phosphate-buffered saline (PBS) solution and stained with 7AAD dye, as per the manufacturer’s protocol for flow cytometry. The CC50 value, which characterizes the parameters of toxicity (i.e., the concentration of the compound required for 50% inhibition of cell viability in vitro), was calculated. logC versus % inhibition was plotted, and statistical data processing was performed using Excel and GraphPad Prism v.8.0.2 (San Diego, CA, USA, 2019). The data obtained from three independent experiments were expressed as the mean of three measurements for each concentration, with the standard deviation indicated as well. These values were then relative to the control values (0.1% DMSO), which were taken as 100%.
(§4) 7-AAD (7-aminoactinomycin D) dye (eBioscience™, San Diego, CA, USA) was used to assess cell viability. Following incubation with the test compounds, the cells were harvested, washed with a phosphate–salt buffer (PBS), and subjected to centrifugation at 400× g for five minutes. The cell sediment was resuspended in 200 μL of staining buffer for flow cytometry (PBS without calcium and magnesium, 2.5% FBS) and stained with a 1 mM 7-AAD dye solution for 15 min in the dark at room temperature. Subsequently, all samples, including experimental and control groups, were analyzed using a BD FACSAria™ III Cell Sorter flow cytometer (Milpitas, CA, USA).

[2] = In vitro cytotoxic activity, 7-AAD flow cytometry, Hek293; type: cell-based; conditions: human, HEK293 cells, conditionally normal line, 24 h incubation, mean ± SD
Description: as §1, §2, §3, §4

[3] = tested on: Jurkat cells; assay: Cytochrome C assay (flow cytometry); type: cell-based, Human; conditions: compound at CC50 concentration, 6 h (Figure 4; method says four hours)
Description: The quantification of cytochrome c release from the mitochondria in apoptotic cells was used to detect the mitochondrial pathway of apoptosis in the cells by flow cytometry. This study employed a direct labeling method that utilized an anti-cytochrome cFITC antibody, an anti-IgG1-FITC isotype control, and optimized fixation, permeabilization, and blocking buffers to detect cytochrome c by flow cytometry (Luminex®, Austin, TX, USA). […] The Jurkat cells were exposed to test substances at concentrations corresponding to their 24-h CC50 in these cells for a period of four hours. Thereafter, analysis by flow cytometry (NovoCyte Flow Cytometry™ Agilent, San Diego, CA, USA) was conducted. The acquired data were processed using NovoExpress® software (version 1.6.2) (ACEA (Agilent, Santa Clara, CA, USA)).
Figure 4 Detection of cytochrome c in Jurkat cells stained with a FlowCellect Cytochrome c Kit. The control compound, carbonyl cyanide m-chlorophenylhydrazone (CCCP), was administered at a concentration equal to its CC50 value. Compound 9d was added to the sample cells at a CC50 concentration (see the table of cell viability). The cells were incubated for 6 h. We compared the numerical values to determine the reliability of the differences observed between the control sample and the samples treated with the synthesized substances. […]

[4] = In vitro cytotoxic activity, 7-AAD flow cytometry, normal fibroblasts; type: cell-based; conditions: human, Wi-38 normal lung fibroblasts, normal fibroblasts Wi-38, 24 h incubation, mean ± SD, read-out: Fibrobl. (CC50)
Description: as §1, §2, §3, §4

[5] = tested on: Jurkat; assay: In vitro cytotoxic activity, 7-AAD flow cytometry, Jurkat; type: cell-based, Human; conditions: 24 h incubation, mean ± SD, triplicate
Description: as §1, §2, §3, §4

[6] = tested on: K562; assay: In vitro cytotoxic activity, 7-AAD flow cytometry, K562; type: cell-based, Human; conditions: 24 h incubation, mean ± SD, triplicate
Description: as §1, §2, §3, §4

[7] = tested on: U937; assay: In vitro cytotoxic activity, 7-AAD flow cytometry, U937; type: cell-based, Human; conditions: Homo sapiens, U-937, 24 h, 24 h incubation, mean ± SD, triplicate
Description: as §1, §2, §3, §4

[8] = tested on: Jurkat cells; assay: Mitodamage assay (MitoSense Red, Annexin V-CF488A, 7-AAD); type: cell-based, Human; conditions: compound at CC50 concentration, four hours
Protocol: To this end, MitoSense Red, a fluorescent dye that accumulates predominantly in mitochondria and responds to changes in membrane potential, was utilized. […] Two dyes commonly employed for detecting apoptosis in cells are annexin V and 7AAD. […] Therefore, the dissipation of mitochondrial membrane potential and the associated apoptosis process in Jurkat tumor cells were analyzed in response to exposure to synthesized macrodiolides. MitoSense Red, Annexin V-CF488A, and 7-AAD were used as dyes for this analysis (see Figure 3). A flow cytometry kit (FlowCellect™ MitoDamage Kit from Millipore, Hayward, CA USA) was utilized, as it facilitates a multiparametric evaluation of three markers of cell health. These markers include changes in mitochondrial potential (early apoptosis and cell stress), phosphatidylserine expression on the cell surface (late apoptosis), and membrane permeability (cell death). The method of the simultaneous detection of mitochondrial damage was performed according to the well-known technique.  Figure 3 Detection changes in mitochondrial membrane potential (ΔΨ) and coupled early and late apoptosis in Jurkat cells treated with compounds 9d, 8d, 7d, and 6d. Staurosporine and carbonyl cyanide-m-chlorophenylhydrazone were utilized as control compounds. The addition of all the tested compounds was executed at the CC50 concentration (refer to the provided table for the cytotoxicities of the synthesized compounds). The staining of cells was conducted using MitoSense Red, Annexin V-CF488A, and 7-AAD. The incubation period lasted for a duration of four hours. The presence of three *** (p < 0.001) and two asterisks ** (p < 0.005) indicates the significance of the observed differences between the values obtained in the control sample and the samples treated with the synthesized substances (comparison was performed by one-way ANOVA). All experiments were performed in triplicate.

For `O=C1CCCCC/C=C\CC/C=C\CCCCCC(=O)OCCCCCC/C=C\CC/C=C\CCCCCCO1` [Compound 9d], the CC50 [1] was 13.5 ± 1.21 nM, the CC50 at 24 h [2] was 42.6 ± 4.31 nM and the “cells releasing cytochrome c into the cytoplasm (Cytochrome loss %)” value [3] was 68.22%. The CC50 at 24 h [4] was 64.3 ± 5.81 nM, the CC50 [5] was 12.1 ± 1.77 nM and the CC50 ([5]; Homo sapiens, Jurkat, 24 h) was 11 nM. The CC50 [6] was 11 ± 1.25 nM, the CC50 ([6]; Homo sapiens, K562, 24 h) was 12.1 nM and the CC50 [7] was 12.2 ± 1.41 nM. The “percentage of cells in apoptosis” value ([8]; Jurkat, Annexin V-CF488A/7-AAD) was 50.34% and the “Jurkat cells with reduced mitochondrial membrane potential (Δψ dissipation)” value ([8]; MitoSense Red) was 77.42%.

From PMC12155470, “Novel Tetraene Macrodiolides Are Effective Inducers of Mitochondrial Apoptosis in Jurkat Cells” (International Journal of Molecular Sciences, 2025)
